Laboratory results reported in patent EP0326331B1, “Substituted quinolines and cinnolines” (Dow AgroSciences LLC, priority 1988, dated 1989).

Key:
Format in all cases: in vivo
[1] = test system: Septoria tritici (leaf blotch); experiment: Test 1 greenhouse foliar spray screen, leaf blotch on wheat; details: for pest or weed control at 400 ppm: Zymoseptoria tritici, Test 1, foliar spray on wheat, disease control rating at 400 ppm / 100 ppm, read-out: LEAF BLOT
[2] = test system: melon aphids (Aphis gossypii Glover); experiment: Mite/insect screen, MA; details: percent mortality; for mortality at 200 ppm / mortality at 400 ppm: Aphis gossypii, foliar, foliar spray on squash, read-out: MA RESULTS %; for mortality at 200 ppm: rate 200 ppm; for mortality at 400 ppm: rate 400 ppm; for MA RESULTS %: SAW
Outline: (§1)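 Read-out: percent mortality after standard exposure periods. Test solutions were water dilutions of compound dissolved in acetone/alcohol (50:50) with emulsifier blends; leaves were sprayed to runoff on both surfaces and air-dried for one hour before exposure.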

[3] = test system: Botrytis cinerea (gray mold); experiment: Test 1 greenhouse foliar spray screen, gray mold on grape berries; details: for pest or weed control at 400 ppm: Botrytis cinerea, foliar, Test 1, spray on grape berries, disease control rating at 400 ppm / 100 ppm
[4] = test system: southern armyworm (Spodopetra eridania Cramer); experiment: Mite/insect screen, SAW; details: percent mortality; for mortality at 200 ppm / mortality at 400 ppm: Spodoptera eridania, foliar, foliar spray on squash, read-out: SAW RESULTS %; for mortality at 200 ppm: rate 200 ppm; for mortality at 400 ppm: rate 400 ppm
Outline: as §1

[5] = test system: Puccinia recondita tritici (leaf rust); experiment: Test 1 greenhouse foliar spray screen, leaf rust on wheat; details: for pest or weed control at 400 ppm: Puccinia recondita, foliar, Test 1, foliar spray on wheat, disease control rating at 400 ppm / 100 ppm
[6] = test system: Pseudoperonospora cubensis (downy mildew); experiment: Test 1 greenhouse foliar spray screen, downy mildew on squash; details: for pest or weed control at 400 ppm: Pseudoperonospora cubensis, foliar, Test 1, foliar spray on squash, disease control rating at 400 ppm / 100 ppm, read-out: DOWN MDEW
corn rootworm = experiment: Mite/insect screen, CRW; details: percent mortality; for mortality at 12 ppm: CRW rate 12.00 ppm; for mortality at 12 ppm / mortality at 24 ppm: read-out: CRW RESULTS %; for mortality at 24 ppm: CRW rate 24.00 ppm
Outline: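 Read-out: % mortality after standard exposure. Formulation: acetone/alcohol (50:50) with emulsifiers at 23 g and 13 g per liter, water-diluted to final test levels.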

[7] = test system: Twospotted spider mites (Tetranychus urticae Koch); experiment: Mite/insect screen, SM; details: for mortality at 200 ppm / mortality at 400 ppm: Tetranychus urticae, foliar, foliar spray on squash, read-out: SM RESULTS %; for mortality at 200 ppm / mortality at 400 ppm / SM RESULTS %: percent mortality; for mortality at 200 ppm: rate 200 ppm; for mortality at 400 ppm: rate 400 ppm; for activity as miticides: summary statement in the description; for SM RESULTS %: SAW
Outline: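 Foliar spray to runoff (10 psi), 1 h drying; aqueous dilutions from acetone/alcohol emulsifier stock. Mortality (%) after standard exposure.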

[8] = test system: Pyricularia oryzae (rice blast); experiment: whole plant or invertebrate; details: for pest or weed control at 400 ppm: Pyricularia oryzae, foliar, read-out: RICE BLAST, Test 1, foliar spray on rice, disease control rating at 400 ppm / 100 ppm
[9] = test system: Erysiphe graminis tritici (powdery mildew); experiment: Test 1 greenhouse foliar spray screen, powdery mildew on wheat; details: for pest or weed control at 400 ppm: Blumeria graminis, foliar, Test 1, foliar spray on wheat, disease control rating at 400 ppm / 100 ppm, read-out: POWD MDEW
[10] = test system: Venturia inaequalis (apple scab); experiment: Test 1 greenhouse foliar spray screen, apple scab on apple seedling; details: for pest or weed control at 400 ppm: Venturia inaequalis, Test 1, foliar spray on apple seedling, disease control rating at 400 ppm / 100 ppm, read-out: APPL SCAB
[11] = test system: Cercospora beticola (leaf spot); experiment: Test 1 greenhouse foliar spray screen, leaf spot on sugar beet; details: for pest or weed control at 400 ppm: Cercospora beticola, Test 1, foliar spray on sugar beet, disease control rating at 400 ppm / 100 ppm
[12] = disease control rating, foliar spray on wheat, 400 ppm (+++ at 100 ppm)

Compound | pest or weed control at 400 ppm [1] [%] | mortality at 200 ppm [2] [%] | pest or weed control at 400 ppm [3] [%] | mortality at 200 ppm [4] [%] | pest or weed control at 400 ppm [5] [%] | pest or weed control at 400 ppm [6] [%] | mortality at 12 ppm (corn rootworm) [%] | mortality at 200 ppm [7] [%] | pest or weed control at 400 ppm [8] [%] | pest or weed control at 400 ppm [9] [%] | pest or weed control at 400 ppm [10] [%] | pest or weed control at 400 ppm [11] [%] | mortality at 400 ppm [2] [%] | mortality at 400 ppm [4] [%] | mortality at 24 ppm (corn rootworm) [%] | mortality at 400 ppm [7] [%] | activity as miticides [7] | other results
c1csc(CCOc2ccnc3ccccc23)c1 [Example 245, 4-[2-(2-thienyl)ethoxy]quinoline] | 0 to 19 | 0 | 0 to 19 | 0 | 90 to 100 | 90 to 100 | 0 | 0 | 90 to 100 | 20 to 89 | 0 to 19 | 0 to 19 |  |  |  |  |  | 
Fc1cccc2c(OCCc3cccs3)ccnc12 [Example 246, 8-fluoro-4-[2-(2-thienyl)ethoxy]quinoline] | 90 to 100 | 0 | 0 to 19 | 0 | 90 to 100 | 90 to 100 | 0 | 0 | 90 to 100 | 90 to 100 | 90 to 100 | 20 to 89 |  |  |  |  |  | 
Fc1cccc2c(OCCc3ccc4ccccc4c3)ccnc12 [Example 247, 8-fluoro-4-[2-(2-naphthyl)ethoxy]quinoline] | 90 to 100 | 0 | 0 to 19 | 20 | 90 to 100 | 20 to 89 | 0 | 90 | 90 to 100 | 90 to 100 | 0 to 19 | 0 to 19 | 0 | 50 | 0 | 0 | particularly excellent activity | activity against rice blast ([8]; summary statement in the description): particularly excellent activity
Cc1ccc(CCOc2ccnc3c(OCCc4ccc(C)cc4)cccc23)cc1 [Example 251, 4,8-bis[2-(4-methylphenyl)ethoxy]quinoline] | 0 to 19 | 0 | 0 to 19 | 0 | 0 to 19 | 20 to 89 | 0 | 0 | 20 to 89 | 0 to 19 | 0 to 19 | 0 to 19 |  |  |  |  |  | 
c1ccc(CCCc2ccnc3ccccc23)cc1 [Example 252, 4-(3-phenylpropyl)quinoline] | 20 to 89 | 100 | 0 to 19 | 0 | 90 to 100 | 90 to 100 | 0 | 90 | 90 to 100 | 90 to 100 | 20 to 89 | 0 to 19 | 100 | 0 | 0 | 90 |  | 
Fc1cccc2c(CCCc3ccccc3)ccnc12 [Example 253, 8-fluoro-4-(3-phenylpropyl)quinoline] | 20 to 89 | 90 | 0 to 19 | 0 | 90 to 100 | 90 to 100 | 0 | 100 | 90 to 100 | 90 to 100 | 90 to 100 | 20 to 89 | 100 | 0 | 0 | 100 | particularly excellent activity | 
Cc1ccc(CCCc2ccnc3c(F)cccc23)cc1 [Example 258, 8-fluoro-4-[3-(4-methylphenyl)propyl]quinoline] | 20 to 89 |  | 0 to 19 |  | 90 to 100 | 90 to 100 |  |  | 90 to 100 | 90 to 100 | 0 to 19 | 20 to 89 | 100 | 0 | 0 | 90 | particularly excellent activity | 
Fc1cccc2c(CCCc3cccc(C(F)(F)F)c3)ccnc12 [Example 259, 8-fluoro-4-[3-[3-(trifluoromethyl)phenyl]propyl]quinoline] | 90 to 100 | 90 | 20 to 89 | 0 | 90 to 100 | 90 to 100 | 0 | 100 | 90 to 100 | 20 to 89 | 90 to 100 | 0 to 19 | 80 | 0 | 0 | 80 | particularly excellent activity | 
Fc1cccc2c(CCCc3ccc(Cl)cc3)ccnc12 [Example 261, 4-[3-(4-chlorophenyl)propyl]-8-fluoroquinoline] | 20 to 89 | 100 | 0 to 19 | 100 | 90 to 100 | 20 to 89 | 0 | 90 | 20 to 89 | 20 to 89 | 20 to 89 | 0 to 19 | 100 | 80 | 100 | 50 |  | 
N-[2-(2,3,4,5,6-tetramethylphenyl)ethyl]-8-fluoro-4-quinolinamine [Example 112] |  |  |  |  |  |  |  |  |  |  |  |  |  |  |  |  |  | LEAF BLOT [1, 12]: - (0-19% control at 400 ppm); MA RESULTS % ([2]; SM & MA RATE 200 PPM): 0%; MA RESULTS % ([2]; SM & MA RATE 400 PPM): 0%; GRAY MOLD ([3]; disease control rating, spray on grape berries, 400 ppm (+++ at 100 ppm)): - (0-19% control at 400 ppm); SAW RESULTS % ([4]; SM & MA RATE 200 PPM): 0%; SAW RESULTS % ([4]; SM & MA RATE 400 PPM): 0%; LEAF RUST [5, 12]: + (20-89% control at 400 ppm); DOWN MDEW ([6]; disease control rating, foliar spray on squash, 400 ppm (+++ at 100 ppm)): +++ (90-100% control at 100 ppm); CRW RESULTS % (corn rootworm; CRW RATE 12.00 PPM): 0%; CRW RESULTS % (corn rootworm; CRW RATE 24.00 PPM): 0%; SM RESULTS % ([7]; SM & MA RATE 200 PPM): 0%; SM RESULTS % ([7]; SM & MA RATE 400 PPM): 0%; RICE BLAST ([8]; disease control rating, foliar spray on rice, 400 ppm (+++ at 100 ppm)): - (0-19% control at 400 ppm); POWD MDEW [9, 12]: - (0-19% control at 400 ppm); APPL SCAB ([10]; disease control rating, foliar spray on apple seedling, 400 ppm (+++ at 100 ppm)): - (0-19% control at 400 ppm); LEAF SPOT ([11]; disease control rating, foliar spray on sugar beet, 400 ppm (+++ at 100 ppm)): - (0-19% control at 400 ppm)
